# Experimental data taken from the supplement of paper PMC10307832.
# Experiments:
# Assay in all cases: relative viability (nuclei count vs DMSO), 5 days (fraction); higher = more cells survive
# [1] = compound: C1=CC(=CC=C1NC(=S)NNC2=C(C=C(C=C2[N+](=O)[O-])C(F)(F)F)[N+](=O)[O-])F [Kobe2602] + Nc1nc2[nH]cc(CCc3ccc(C(=O)N[C@@H](CCC(=O)O)C(=O)O)cc3)c2c(=O)[nH]1 [Pemetrexed] (partner 0.2 µM)
# Summary of the method: (§1)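 Dosing by pin tool came one day after lung cancer cell lines were seeded in 1536-well plates, using either one drug or a fixed anchor-drug dose plus five library-drug doses (not always all listed) in √10 steps. After 5 days, nuclei were counted on 4× images. Relative viability is treated-well nuclei count divided by vehicle-well nuclei count, and values are medians of duplicate plates.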
# [2] = compound: C1=CC(=CC=C1NC(=S)NNC2=C(C=C(C=C2[N+](=O)[O-])C(F)(F)F)[N+](=O)[O-])F [Kobe2602] + O=C(CCCCCCC(=O)Nc1ccccc1)NO [Vorinostat] (partner 1 µM)
# Summary of the method: as §1
# [3] = compound: COc1cc2nccc(Oc3ccc(NC(=O)C4(C(=O)Nc5ccc(F)cc5)CC4)cc3)c2cc1OC [Cabozantinib] + Cc1nc(Nc2ncc(C(=O)Nc3c(C)cccc3Cl)s2)cc(N2CCN(CCO)CC2)n1 [Dasatinib] (partner 0.075 µM)
# Summary of the method: as §1
# [4] = compound: O[C@@H](COc1cccc2ncccc12)CN1CCN([C@@H]2c3ccccc3[C@@H]3[C@H](c4ccccc42)C3(F)F)CC1 [Zosuquidar] + COc1cccc2cc(-c3nc([C@H]4CC[C@H](C(=O)O)CC4)n4ncnc(N)c34)[nH]c12 [OSI-027] (partner 0.5 µM)
# Summary of the method: as §1
cell line,measurement,setting,value
UMC-11,relative viability,[1]; first compound 0.2 µM,0.805
same,relative viability,[1]; first compound 0.6325 µM,0.83
same,relative viability,[1]; first compound 2 µM,0.822
same,relative viability,[1]; first compound 6.325 µM,0.788
same,relative viability,[1]; first compound 20 µM,0.779
same,relative viability,[2]; first compound 0.2 µM,0.428
same,relative viability,[2]; first compound 0.6325 µM,0.39
same,relative viability,[2]; first compound 2 µM,0.336
same,relative viability,[2]; first compound 6.325 µM,0.409
same,relative viability,[2]; first compound 20 µM,0.377
same,relative viability,[3]; first compound 0.02 µM,0.494
same,relative viability,[3]; first compound 0.06325 µM,0.492
same,relative viability,[3]; first compound 0.2 µM,0.453
same,relative viability,[3]; first compound 0.6325 µM,0.493
same,relative viability,[3]; first compound 2 µM,0.452
same,relative viability,[4]; first compound 0.01 µM,0.439
same,relative viability,[4]; first compound 0.03162 µM,0.511
same,relative viability,[4]; first compound 0.1 µM,0.462
same,relative viability,[4]; first compound 0.3162 µM,0.483
same,relative viability,[4]; first compound 1 µM,0.501
